# Tested on: Mycobacterium tuberculosis
# Test: Induction of resistant in Mycobacterium tuberculosis H37Rv in Middlebrook 7H9 broth with glucose at 10 times MIC after 4 to 5 weeks relative to control
# Type: functional
compound,measurement,value
O=C(Nc1nc(-c2ccccn2)cs1)c1cccc(Br)c1,fold change (FC),2

# Reference: ChEMBL document CHEMBL2440116, “Structure-activity relationships of 2-aminothiazoles effective against Mycobacterium tuberculosis” (Bioorg Med Chem, 2013)
